Measured values taken from the METLIN SMRT retention time set (Domingo-Almenara et al. 2019).

Test: gradient 5% acetonitrile 3 min, to 50% in 2 min, to 85% in 15 min, held 3 min, 100 µL/min
Details: column: Zorbax Extend-C18 2.1 x 50 mm; eluents: water / acetonitrile, 0.1% formic acid
How it was run: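 Data were gathered over 3 months by HPLC coupled to a quadrupole time-of-flight mass spectrometer, operated in positive and negative ionization mode. Mixtures of ~100 pure standards ran on a Zorbax Extend-C18 column (2.1 × 50 mm, 1.8 μm) at 100 μL/min, with water and acetonitrile each containing 0.1% formic acid and dead and dwell volumes of 40 μL and 900 μL. Retention time was read from adduct peaks picked by computer and checked manually.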

RP-LC retention time [s]	Compound
731	CCCN(CC1CCOC1)C(=O)Nc1c(F)cccc1F (stereo not drawn)
721	COc1ccc(CN(Cc2ccccc2)Cc2cc(=O)n3cc(Cl)ccc3n2)cc1
590	COc1cccc(CN2C[C@@H]3C(=O)N(CCN4CCc5ccccc5C4)C(=O)[C@@H]3C2)c1
814	CCS(=O)(=O)c1ccccc1C(=O)Nc1sc(-c2ccccc2)cc1C(N)=O
889	CCc1nc(OCC(=O)Nc2cccc(Br)c2)c2ccccc2n1
840	CN(C(=O)CCCOc1ccc2[nH]c(=O)ccc2c1)C1CCCCC1
626	CN1C(=O)c2cc(C(=O)N3CCCC3)nn2CC1(C)C(=O)NCc1ccc(F)cc1 (stereo not drawn)
740	O=C(Nc1cccc(Cl)c1)C1CCCN(C(=O)c2cc(-c3ccccn3)n[nH]2)C1 (stereo not drawn)
677	Cn1c(=O)c2c(ncn2CC(=O)N2CCCn3nc(-c4cccc(F)c4)cc3C2)n(C)c1=O
859	COc1ccc(OC)c(NC(=O)Cn2c(=O)nc(N3CCC(C)CC3)c3ccccc32)c1
782	O=C(NCC1CCOCC1)c1ccc2ccccc2n1
613	Cc1cc(N2CCN(C(=O)Nc3ccccc3C)CC2)nc(N2CCOCC2)n1
749	N#Cc1cc(NC(=O)c2ccc3c(c2)OCO3)ccc1N1CC2CC(C1)c1cccc(=O)n1C2 (stereo not drawn)
716	Cc1cc(NC(=O)CSc2nnc(Cc3ccccc3)o2)no1
694	Cc1noc(-c2cccc(OC3CN(C(=O)C4CCOC4)C3)c2)n1 (stereo not drawn)
1050	COc1cc(-c2noc(C3CC(=O)N(c4ccc(C)c(Cl)c4)C3)n2)cc(OC)c1OC (stereo not drawn)
701	CCSc1nnc(NC(=O)Cn2c(-c3cnccn3)nc3ccccc32)s1
755	CN1CCCc2cc(C(=O)NC3CCCCCC3)sc21
824	COc1ccc(-c2csc(Nc3ncccn3)n2)cc1OC
953	CN(CCc1noc(COc2ccc(F)cc2)n1)C(=O)Nc1ccc(F)c(Cl)c1
856	Cc1ccc(C)c(CNC(=O)c2ccc(NC(=O)C3CC3)cc2N2CCOCC2)c1
966	COc1ccc(-c2noc(-c3nc(-c4cccnc4)no3)n2)cc1

RP-LC retention time [s]	Compound
733	CCCNC(=O)C1CCCN(c2ccc(SCC(=O)Nc3cccc(CC)c3)nn2)C1 (stereo not drawn)
764	O=C(Nc1ccc2c(c1)OCCO2)C1CC(=O)N(CCc2c[nH]c3ccc(F)cc23)C1 (stereo not drawn)
842	CCOc1ccc(CC(=O)N2CCCN(c3cc(-c4ccc(Br)cc4)[nH]n3)CC2)cc1OCC
980	CN(CCc1noc(COc2ccc(F)cc2)n1)C(=O)Nc1ccc(Br)cc1
822	CCCNC(=O)c1ccc(-c2ccc3c(c2)CCN3C(=O)CC)cc1
675	CCOC(=O)c1c(C)[nH]c(C(=O)N2CCC(CC(=O)N3CCOCC3)CC2)c1C
764	CCS(=O)(=O)Nc1ccc(C2=NN(C(=O)c3ccco3)C(c3cccs3)C2)cc1 (stereo not drawn)
1070	Cc1ccc(C(C)NC(=O)C2CCN(c3nccnc3Oc3cccc(C)c3)CC2)cc1 (stereo not drawn)
1080	Cc1cc(C)cc(Nc2nc(C)cc3nn(CC(=O)NCc4ccccc4)c(=O)n23)c1
1080	O=C(Cn1nc2c(SC3CCCCC3)nccn2c1=O)N1CCN(c2ccc(F)cc2)CC1
586	Cc1[nH]c(C)c(S(=O)(=O)N2CCN(c3ccccn3)CC2)c1C(=O)N1CCCC1
728	CCCn1cc(C2=CCN(S(=O)(=O)c3cc(OC)ccc3OC)CC2)c2cccnc21
712	Cc1cc(C)c(NC(=O)Cn2cc(-c3nc(C)no3)ccc2=O)c(C)c1
967	CCOc1ccc(NC(=O)Cn2c(N3CCOCC3)nc(COC)cc2=O)cc1
693	CCc1c(C2CCN(C(=O)Nc3ccc(OC)cc3)CC2)noc1N
714	COc1ccccc1CNC(=O)C1CCN(S(=O)(=O)c2ccc3[nH]c(=O)ccc3c2)CC1
838	O=C(CN1C(=O)CCCc2cc(S(=O)(=O)N3CCCC3)ccc21)N1CCc2ccccc2C1
912	Cc1ccc(-n2nc(N3CCCN(S(=O)(=O)Cc4ccccc4)CC3)ccc2=O)cc1C
657	COc1cc(Nc2c(C(=O)N3CCCC(C)C3)cnc3nc(C)ccc23)cc(OC)c1 (stereo not drawn)
812	CCc1nc(-c2c(C)cc(C)nc2NC(=O)c2ccc(F)cc2)no1
642	O=C(CSc1nnc(N2CCN(C(=O)c3cccs3)CC2)s1)NCc1ccco1
1120	CC(C)c1csc(-c2csc(S(=O)(=O)Nc3ccc(F)c(F)c3)c2)n1

RP-LC retention time [s]	Compound
801	O=c1c2cnc(N3CCOCC3)nc2ccn1CCc1c[nH]c2ccccc12
912	COC(=O)c1ccc(Oc2cc(C)nc(-n3nc(C)cc3C)n2)cc1
572	Cc1nc(-c2ccnc(N3CCCC3)c2)no1
1010	CCn1c(=O)c(C)nc2cc(-c3noc(/C=C/c4ccc(OC)c(OC)c4)n3)ccc21
602	O=C(C1CCC(=O)N1S(=O)(=O)c1ccccc1)N1CCN(c2ccccn2)CC1 (stereo not drawn)
738	COc1cc(C2CN(C(=O)c3ccc4c(c3)OCO4)CC2C(=O)NCCC(C)C)cc(OC)c1OC (stereo not drawn)
1060	Cc1ccc(-c2ccc(=O)n(Cc3nc(-c4cccs4)no3)n2)cc1C
626	CCCCn1c(CN2CCCC2)nc2cc(NC(=O)c3ccco3)ccc21
587	O=C(COc1ccc2c(c1)OCO2)N1CCN(c2cc(N3CCCCC3)ncn2)CC1
1080	CCc1nc(-c2csc(S(=O)(=O)N3CCCC(C(=O)Nc4ccc(Cl)cn4)C3)c2)no1 (stereo not drawn)
693	C=C(C)CN1CCN(c2cc(C)nc3c(C)c(-c4ccc(Cl)cc4)nn23)CC1
943	Cc1ccccc1-c1noc(Cn2nc(-c3ccc4c(c3)OCO4)ccc2=O)n1
744	Cc1c(F)cccc1NC(=O)N1CCCC1c1nncn1-c1ccccc1 (stereo not drawn)
811	COc1ccc(NC(=O)c2noc3c2CCC3)cc1OC
626	CC1CCCN(CCCNC(=O)CCCn2c3ccccc3c3cnn(C)c(=O)c32)C1 (stereo not drawn)
1070	O=C(NC1CCCCC1)C1CCN(S(=O)(=O)c2cc(-c3noc(C4CCC4)n3)cs2)CC1
1100	O=C(COc1ccccc1-c1nnc(-c2ccccc2)o1)Nc1ccc2c(c1)OCO2
1020	O=C1CC(c2noc(-c3cc(F)ccc3Cl)n2)CN1c1ccc(F)cc1 (stereo not drawn)
1150	COc1ccccc1-c1csc(NC(=O)Cc2csc(-c3ccccc3)n2)n1
611	CC(C)(C)CC(=O)N1CCN(c2nc(CN3CCOCC3)cs2)CC1
754	CCc1noc(NC(C)=O)c1-c1ccc(OC)c(S(=O)(=O)Nc2cccc(OC)c2)c1
988	Cc1ccc(Sc2cc3c(cc2NC(=O)c2ccco2)n(C)c(=O)n3C)cc1

RP-LC retention time [s]	Compound
988	CCc1nc(-c2ccc3c(c2)CCN3C(=O)COc2ccccc2)no1
1020	CCC1CN(C(=O)Nc2cccc(C(=O)OC)c2)c2ccccc2O1 (stereo not drawn)
1150	Cc1cccc(Sc2nccnc2N2CCCC(C(=O)NCc3ccccc3C)C2)c1 (stereo not drawn)
730	CCN1CCN(C(=O)CC2COc3ccc(Cl)cc3N2Cc2ccccc2)CC1 (stereo not drawn)
647	CCc1nc2cccnc2n1C1CCN(C(=O)CCCc2ccccc2)C1 (stereo not drawn)
979	CS(=O)(=O)Nc1ccc(C2(C(=O)NCc3ccc(F)cc3Cl)CCCCC2)cc1
869	Cc1ccccc1C1CCCN1C(=O)c1cnn2cc(Br)cnc12 (stereo not drawn)
944	Cc1ccccc1S(=O)(=O)N1CCCC(C)(C(=O)NCc2ccccc2)C1 (stereo not drawn)
828	O=C(c1cccc(OC(F)(F)F)c1)N1CCN(c2cc(-c3cccs3)[nH]n2)CC1
765	O=C(CCn1cnc2cc(-c3noc(-c4cccc(F)c4)n3)ccc21)N1CCCC1
745	CCC(C(=O)Nc1c(-c2ccc(F)cc2)nc2cc(C)ccn12)c1ccccc1 (stereo not drawn)
1370	CCn1ccc(C(=O)N(CC2CCCO2)c2nc3c(C(C)C)cccc3s2)n1 (stereo not drawn)
602	CCCNC(=O)N1CCCC(c2nn(C)c(=O)n2CC)C1 (stereo not drawn)
1110	CCOc1ccccc1NC(=O)Cn1cnc2c(sc3nc(-c4ccccc4)ccc32)c1=O
984	Cc1noc(C)c1S(=O)(=O)N1CCC(c2nc(CCOCc3ccccc3)no2)C1 (stereo not drawn)
795	CCOC(=O)N1CCC(NC(=O)c2cn(-c3cccc(Cl)c3)nn2)CC1
698	O=C(Cn1cnc2nc(N3CCC(C(=O)NC4CC4)CC3)sc2c1=O)NCCC1=CCCCC1
1020	CCOc1ccc(-n2nc(CO)c(C(=O)NC3CCCC3)n2)cc1
647	N[C@@H](Cc1cc(CP(=O)(O)O)cc(-c2ccccc2Cl)c1)C(=O)O
970	COc1cccc(-c2ccnc3nc(CCc4ccccc4)nn23)c1
1160	CCCCCOC(=O)c1ccc(Nc2nc(C(=O)OCC)nc3ccccc23)cc1

Compound	RP-LC retention time [s]
Cc1nc(C)c(C(=O)N/N=C/c2ccc(N(CCCl)CCCl)cc2)s1	942
